{
  "source": "patent US20040029860A1",
  "about": "“Anti-proliferative drugs” (priority 2000, published 2004)",
  "key": {"[1]": {"system": "doxorubicin resistant neuroblastoma cells (SH-SY5T)", "experiment": "sensitization to doxorubicin, doxorubicin resistant neuroblastoma SH-SY5T", "format": "cell-based, human", "conditions": "dose dependant, FIG. 6E, 6F"}, "HaCat I5 keratinocytes": {"system": "HaCat I5 keratinocytes", "experiment": "keratinocyte viability, Neutral red, HaCat I5", "format": "cell-based, human", "conditions": "5-100 μM, 24 hr, Neutral red; FIG. 13B, 15B", "description": "(§1) The drugs were administered at concentrations within the range of 5-100 μM and cell viability was measured 24 hr post-administration by Neutral red staining. The efficiency of the agents against viability of the cell lines was evaluated also by comparison with two commonly used anticancer agents (Doxorubicin and 5-fluorouracil (5-FU)) at equimolar concentrations."}, "MDR B16 melanoma": {"system": "MDR B16 melanoma", "experiment": "sensitization to doxorubicin, MDR B16 melanoma", "format": "cell-based, mouse", "conditions": "dose dependant, FIG. 6C"}, "[2]": {"system": "mouse Lewis lung carcinoma (3LL)", "experiment": "in vivo effect on Lewis lung carcinoma (3LL) in mice", "conditions": "3LL inoculated C57 mice, i.p. daily, thioridazine 15 mg/kg, others 30 mg/kg; for lungs weight / tumor size compared to control group: FIG. 5", "description": "Female C57 black mice aged 4 weeks were used in order to evaluate the in vivo effect of cyclic psychotropic agents on tumor cells. In particular, animals were divided into 5 groups (6-8 mice each). Animals were inoculated with mouse Lewis lung carcinoma (3LL, 0.5 million each) by i.v. injection to the tail vein and then treated by i.p. injection daily for 3 weeks with the following different agents\n(5) Paroxetine (30 mg/kg).\nDuring the treatment period animals were inspected daily and their body weight registered twice a week. […] After the four weeks of treatment the mice were sacrificed and their lungs dissected and weighted."}, "HaCat keratinocytes": {"system": "HaCat keratinocytes", "experiment": "keratinocyte viability, Neutral red, HaCat", "format": "cell-based, human", "conditions": "5-100 μM, 24 hr, Neutral red; FIG. 13A, 15A", "description": "as §1"}, "B16 melanoma cells [3]": {"system": "B16 melanoma cells", "experiment": "sensitization to doxorubicin, B16 melanoma cells", "format": "cell-based, mouse", "conditions": "clomipramine 10, […], 20 μM with doxorubicin 1, 2.5, 5 μM; FIG. 6B"}, "B16 melanoma cells [4]": {"system": "B16 melanoma cells", "format": "in vivo", "description": "Male C57 black mice aged 5-7 weeks were used. Animals were inoculated with B16 melanoma cells by iv. injection (200,000 cells/mouse) to the tail vein. […]. Body weight was recorded three times weekly during the experiment and survival was registered. Animals were sacrificed 24 days after cell inoculation, and lungs were dissected and weighted."}, "B16 melanoma": {"system": "B16 melanoma", "conditions": "for mean number of metastases: controls 53.8+; for mean lungs weight: day 27, controls 685; for mice with confluent lungs: controls 6/7", "description": "Female C57 mice aged 5-7 weeks were used, animals were divided into 3 treatment groups:\n1. Controls: B16 inoculated vehicle treated;\nHalf of the animals were sacrificed after 21 days and half after 27 days. Lungs weight and number of metastases were recorded."}, "HaCat I5 cells": {"system": "HaCat I5 cells", "experiment": "DNA fragmentation, flow cytometry, HaCat I5", "format": "cell-based, human", "conditions": "basal 10.23%", "description": "(§2) DNA fragmentation was determined by flow cytometric analysis of propidium iodide-stained cells according to the method of Vindelov et al Vindelov, L. L., et al. Cytometry."}, "Melanoma B16 cells": {"system": "Melanoma B16 cells", "description": "Animals were divided into three groups:\n1. Controls B16 with no therapy;\nWater consumption was registered daily, and calculation of dose was performed according to the mean consumed water. Body weight was registered 3 time/week."}, "p53 mutant": {"system": "p53 mutant", "experiment": "p53 mutant expression, western blotting in glioma C6", "format": "cell-based, rat", "conditions": "30 and 60 μM, FIG. 8"}, "HaCat cells": {"system": "HaCat cells", "experiment": "DNA fragmentation, flow cytometry, HaCat", "format": "cell-based, human", "conditions": "basal 29%", "description": "as §2"}},
  "note": "Entries after “also recorded” stand apart in the source; their conditions may differ. Where two headings read alike, the source gives them in different places.",
  "data": [
    {"smiles": "CN(C)CCCN1c2ccccc2CCc2ccc(Cl)cc21", "note": "[Clomipramine]", "values": [
      {"measurement": "potentiation of doxorubicin toxicity (in words)", "setting": "[1]", "result": "potentiate the toxicity of doxorubicin"},
      {"measurement": "cell viability HaCat I5 (in words)", "setting": "HaCat I5 keratinocytes", "result": "effective in reducing cell viability"},
      {"measurement": "cell viability in combination with doxorubicin (in words)", "setting": "MDR B16 melanoma", "result": "significantly decreased"},
      {"measurement": "survival rate during four weeks of treatment", "setting": "[2]", "result": "7/7"},
      {"measurement": "lungs weight / tumor size compared to control group", "setting": "[2]", "result": "effective in reducing tumor size"},
      {"measurement": "cell viability HaCat (in words)", "setting": "HaCat keratinocytes", "result": "effective in reducing cell viability"},
      {"measurement": "cell viability in combination with doxorubicin", "setting": "B16 melanoma cells [3]", "result": "less than 15 % from control"}
    ]},
    {"smiles": "CSc1ccc2c(c1)N(CCC1CCCCN1C)c1ccccc1S2", "note": "(centres unmarked) [Thioridazine]", "values": [
      {"measurement": "survival rate", "setting": "B16 melanoma cells [4]; 2.5 mg/kg i.p. 3 times/week", "result": "4/5"},
      {"measurement": "survival rate", "setting": "B16 melanoma cells [4]; 5 mg/kg i.p. 3 times/week", "result": "3/4"},
      {"measurement": "survival rate", "setting": "B16 melanoma cells [4]; 10 mg/kg i.p. 3 times/week", "result": "5/5"},
      {"measurement": "lungs weight", "setting": "B16 melanoma cells [4]; 20 mg/kg compared to 2.5 mg/kg (p=0.05), 24 days after inoculation", "result": "significant decrease"},
      {"measurement": "survival rate", "setting": "B16 melanoma cells [4]; 20 mg/kg i.p. 3 times/week", "result": "5/5"},
      {"measurement": "mean number of metastases", "setting": "B16 melanoma; 10 mg/kg i.p. x3/week, after 21 days", "result": 46.1},
      {"measurement": "mean lungs weight", "setting": "B16 melanoma; 10 mg/kg", "result": 520, "unit": "mg"},
      {"measurement": "mice with confluent lungs", "setting": "B16 melanoma; 10 mg/kg", "result": "6/7"},
      {"measurement": "mean number of metastases", "setting": "B16 melanoma; […] mg/kg i.p. x3/week, after 21 days", "result": 28.5},
      {"measurement": "mean lungs weight", "setting": "B16 melanoma; […] mg/kg", "result": 335, "unit": "mg"},
      {"measurement": "mice with confluent lungs", "setting": "B16 melanoma; […] mg/kg", "result": "2/7"},
      {"measurement": "lungs weight", "setting": "B16 melanoma; after 21 days, vs controls", "result": "No difference"},
      {"measurement": "effective doses", "setting": "B16 melanoma; parenteral route, B16 melanoma in mice", "result": "15 to 20", "unit": "mg/kg"},
      {"measurement": "toxic concentrations", "setting": "B16 melanoma; parenteral route, mice", "result": "higher than 30 mg/kg"},
      {"measurement": "apoptosis (DNA fragmentation)", "setting": "HaCat I5 cells; 25 μM", "result": 74.5, "unit": "%"},
      {"measurement": "apoptosis (DNA fragmentation)", "setting": "HaCat I5 cells; 50 μM", "result": 76.6, "unit": "%"},
      {"measurement": "mice with big or conglomerate metastases", "setting": "Melanoma B16 cells; 20-30 mg/kg per day, after 24 days, same rate as controls", "result": "1/7"},
      {"measurement": "animals with confluent metastases", "setting": "Melanoma B16 cells; 27 and 30 days, controls 6/11", "result": "0/21"},
      {"measurement": "big or confluent metastases", "setting": "Melanoma B16 cells; 30-40 mg/kg per day, after 24 days", "result": "No big or confluent metastases were found"},
      {"measurement": "spontaneous death during experiment", "setting": "Melanoma B16 cells; controls 5/18", "result": "2/36"},
      {"measurement": "body weight vs healthy and B16 controls", "setting": "Melanoma B16 cells; in drinking water", "result": "No difference"},
      {"measurement": "mean decrease in expression of p53 mutant", "setting": "p53 mutant", "result": 75, "unit": "%"},
      {"measurement": "cell viability HaCat I5 (in words)", "setting": "HaCat I5 keratinocytes", "result": "effective in reducing cell viability; also recorded: responded"},
      {"measurement": "rate of DNA fragmentation", "setting": "HaCat cells; 25 μM", "result": 82.8, "unit": "%"},
      {"measurement": "rate of DNA fragmentation", "setting": "HaCat cells; 50 μM", "result": 89.3, "unit": "%"},
      {"measurement": "survival rate during four weeks of treatment", "setting": "[2]", "result": "7/7"},
      {"measurement": "lungs weight / tumor size compared to control group", "setting": "[2]", "result": "effective in reducing tumor size"},
      {"measurement": "cell viability HaCat (in words)", "setting": "HaCat keratinocytes", "result": "effective in reducing cell viability; also recorded: responded"}
    ]}
  ]
}
